Read-outs that look alike come from different tables or passages of the source.
Tests used:
[1] = tested on: HSV; settings: cited from earlier work; for extracellular inactivation of HSV: 0.5 mM
[2] = tested on: Buffalo green monkey kidney (BGM 70) cells; assay: [3H]-thymidine uptake cytotoxicity; assay type: cell-based; settings: for inhibition at 0.4 µM / inhibition at 1.6 µM / inhibition at 2.5 µM / inhibition at 10 µM: Chlorocebus sabaeus, read-out: % Inhibition of [3H]-Thymidine Incorporated; for inhibition at 0.4 µM: 0.4 μmol/L; for inhibition at 1.6 µM: 1.6 μmol/L; for inhibition at 2.5 µM: 2.5 μmol/L; for inhibition at 10 µM: 10.0 μmol/L
[3] = Inhibition of cell growth (microscopic cell count); assay type: cell-based, Buffalo green monkey; settings: monkey, bgm-70 cells, read-out: % Reduction of cell growth; for inhibition at 24 h, 0.4 µM / inhibition at 48 h, 0.4 µM: 0.4 μmol/L; for inhibition at 24 h, 1.6 µM / inhibition at 48 h, 1.6 µM: 1.6 μmol/L; for inhibition at 24 h, 2.5 µM / inhibition at 48 h, 2.5 µM: 2.5 μmol/L; for inhibition at 24 h, 10 µM / inhibition at 48 h, 10 µM: 10.0 μmol/L; for inhibition at 24 h, 50 µM / inhibition at 48 h, 50 µM: 50.0 μmol/L; for inhibition at 24 h, 100 µM / inhibition at 48 h, 100 µM: 100.0 μmol/L
Method: a MASHII cell harvester and placed in a scintillation counter to determin
incorporation of labelled compound and level of toxicity. BGM 70 cells ar
seeded at a concentration of […] per well in a 24well tissue cultur
plate. Cells are planted in 2 mL of growth medium with or without the tes
compound and are incubated at 37° C. for 38 hours. At 24 hours
medium is removed from onehalf of the plates and the cells are fixed and
stained with crystal violet. The remaining cultures are fixed and stained
^b BGM 70 cells are counted microscopically and comparisons are made.
Experiments are performed blindly by assigning each compound concentratio
a letter code. The code is broken after the cells are counted.
The effect of the compounds on the inhibition of cell growth is determined using BGM-70 cells grown in vitro. For this assay, BGM 70 cells are seeded at a concentration of approximately 70 cells per well in 24-well tissue culture plates. Cells are planted in 2 ml of growth medium with or without the test compound and are incubated at 37° C. for 48 hours. At 24 hours, cells from one half of the plates are fixed and stained with crystal violet. The remaining cultures are fixed and stained at 48 hours. Cells are counted microscopically and comparisons are made between non-treated (control) and treated cells.

[4] = tested on: HSV-2; assay: Intracellular activity, inhibition of plaque forming units, HSV-2; assay type: cell-based, Herpes simplex virus type 2; settings: for inhibition at 0.4 µM: Human alphaherpesvirus 2, HSV-2, 0.4 μmol/L; for inhibition at 1.6 µM: Human alphaherpesvirus 2, HSV-2, 1.6 μmol/L; for inhibition at 10 µM: Human alphaherpesvirus 2, HSV-2, 10.0 μmol/L
[5] = tested on: HSV-2; assay: Extracellular activity, inhibition of plaque forming units, HSV-2; settings: for inhibition at 0.4 µM: Human alphaherpesvirus 2, read-out: % Inhibition of PFU, EA (extracellular activity), HSV-2, 0.4 μmol/L; for inhibition at 1.6 µM: Human alphaherpesvirus 2, read-out: % Inhibition of PFU, EA (extracellular activity), HSV-2, 1.6 μmol/L; for inhibition at 2.5 µM: Human alphaherpesvirus 2, read-out: % Inhibition of PFU, EA (extracellular activity), HSV-2, 2.5 μmol/L; for inhibition at 10 µM: Human alphaherpesvirus 2, read-out: % Inhibition of PFU, EA (extracellular activity), HSV-2, 10.0 μmol/L
[6] = tested on: human immunodeficiency virus (HIV); settings: cited from earlier work
[7] = tested on: HBV surface antigen; settings: Pottage et al., cited from earlier work
[8] = tested on: cellular protein synthesis; settings: Pottage et al., cited from earlier work
[9] = tested on: enveloped viruses; settings: cited from earlier work
[10] = tested on: viruses having no lipids; settings: cited from earlier work
[11] = tested on: enveloped virus .phi. 6; settings: cited from earlier work
[12] = tested on: herpes simplex virus type 1 (HSV-1); settings: cited from earlier work
[13] = at concentrations of 10 μM or less
[14] = read-out: % Inhibition of PFU, IA (intracellular activity)

CCOC(=O)C(C)(C)Oc1ccc(Cl)cc1 [clofibrate, clofibric acid ethyl ester]
antiherpetic activity ([1]; Steinhart et al.): antiherpetic activity

O=c1oc2ccc(Cl)cc2c(O)c1O [Compound 6]
inhibition at 0.4 µM ([2]; 24 h): 11.1 ± 9.1%
inhibition at 1.6 µM ([2]; 24 h): 31.1 ± 5.8%
inhibition at 2.5 µM ([2]; 24 h): 17.8 ± 2%
inhibition at 10 µM ([2]; 24 h): 90 ± 1.4%
inhibition at 0.4 µM ([2]; 48 h): 16.7 ± 8.4%
inhibition at 1.6 µM ([2]; 48 h): 46.8 ± 9%
inhibition at 2.5 µM ([2]; 48 h): 20 ± 3.3%
inhibition at 10 µM ([2]; 48 h): 99.2 ± 0.8%
inhibition at 0.4 µM ([2]; 72 h): 31.8 ± 12%
inhibition at 1.6 µM ([2]; 72 h): 41.4 ± 14%
inhibition at 2.5 µM ([2]; 72 h): 17 ± 5%
inhibition at 10 µM ([2]; 72 h): 99.2 ± 0.8%
toxicity ([3H]-thymidine uptake and/or cell growth) [2, 13]: display toxicity
inhibition at 24 h, 0.4 µM [3]: 21 ± 1%
inhibition at 24 h, 1.6 µM [3]: 20 ± 6.2%
inhibition at 24 h, 2.5 µM [3]: 56 ± 12%
inhibition at 48 h, 0.4 µM [3]: 12 ± 6.5%
inhibition at 48 h, 1.6 µM [3]: 30 ± 13.1%
inhibition at 48 h, 2.5 µM [3]: 58 ± 9.4%
inhibition at 0.4 µM [4, 14]: 3 ± 1.1%
inhibition at 1.6 µM [4, 14]: 10 ± 4.6%
inhibition at 0.4 µM [5]: 1.5 ± 0.8%
inhibition at 1.6 µM [5]: 1.2 ± 0.6%
inhibition at 2.5 µM [5]: 0.4 ± 0.1%

nonoxynol-9
inactivation of HIV [6]: inactivate HIV

O=c1oc2ccc(O)cc2c(O)c1O [Compound 7]
inhibition at 0.4 µM ([2]; 24 h): 13.6 ± 6.1%
inhibition at 1.6 µM ([2]; 24 h): 28.6 ± 12%
inhibition at 2.5 µM ([2]; 24 h): 36.9 ± 8.6%
inhibition at 10 µM ([2]; 24 h): 44.3 ± 9.1%
inhibition at 0.4 µM ([2]; 48 h): 13.9 ± 6.1%
inhibition at 1.6 µM ([2]; 48 h): 31.7 ± 8.4%
inhibition at 2.5 µM ([2]; 48 h): 37.2 ± 5.1%
inhibition at 10 µM ([2]; 48 h): 46.6 ± 8%
inhibition at 0.4 µM ([2]; 72 h): 13.9 ± 6.1%
inhibition at 1.6 µM ([2]; 72 h): 31.6 ± 8.4%
inhibition at 2.5 µM ([2]; 72 h): 39.3 ± 13.1%
inhibition at 10 µM ([2]; 72 h): 48.4 ± 14%
toxicity ([3H]-thymidine uptake and/or cell growth) [2, 13]: display toxicity
inhibition at 24 h, 0.4 µM [3]: 14.2 ± 6.2%
inhibition at 24 h, 2.5 µM [3]: 0.4%
inhibition at 24 h, 10 µM [3]: 1.6 ± 0.2%
inhibition at 24 h, 50 µM [3]: 18.4 ± 6.1%
inhibition at 24 h, 100 µM [3]: 52 ± 8%
inhibition at 48 h, 2.5 µM [3]: 1 ± 0.4%
inhibition at 48 h, 10 µM [3]: 2 ± 1%
inhibition at 48 h, 50 µM [3]: 22.1 ± 8.4%
inhibition at 48 h, 100 µM [3]: 66 ± 11.1%
inhibition at 10 µM [4, 14]: 10 ± 3.2%
inhibition at 10 µM [5]: 86 ± 0.5%

CC1(c2ccc(Cl)cc2)OC(=O)C(O)=C1O (racemic) [Compound 1]
inhibition at 0.4 µM ([2]; 24 h): 0%
inhibition at 1.6 µM ([2]; 24 h): 16.7 ± 12.7%
inhibition at 2.5 µM ([2]; 24 h): 66.7 ± 5.8%
inhibition at 10 µM ([2]; 24 h): 95 ± 0.4%
inhibition at 0.4 µM ([2]; 48 h): 0%
inhibition at 1.6 µM ([2]; 48 h): 14.5 ± 15.5%
inhibition at 2.5 µM ([2]; 48 h): 74.3 ± 9.3%
inhibition at 10 µM ([2]; 48 h): 98.6 ± 0.5%
inhibition at 0.4 µM ([2]; 72 h): 0%
inhibition at 1.6 µM ([2]; 72 h): 39.9 ± 15.7%
inhibition at 2.5 µM ([2]; 72 h): 53.9 ± 16.3%
inhibition at 10 µM ([2]; 72 h): 98.2 ± 0.8%
toxicity ([3H]-thymidine uptake and/or cell growth) [2, 13]: display toxicity
inhibition at 24 h, 0.4 µM [3]: 12 ± 4%
inhibition at 24 h, 1.6 µM [3]: 54 ± 8.6%
inhibition at 24 h, 2.5 µM [3]: 60 ± 9.1%
inhibition at 48 h, 0.4 µM [3]: 16 ± 3.6%
inhibition at 48 h, 1.6 µM [3]: 67 ± 12.1%
inhibition at 48 h, 2.5 µM [3]: 90 ± 4.6%
inhibition at 0.4 µM [4, 14]: 0%
inhibition at 1.6 µM [4, 14]: 8 ± 2.4%
inhibition at 0.4 µM [5]: 0%
inhibition at 1.6 µM [5]: 1.5 ± 0.1%

CCCCCCCCCCO [decanol]
extracellular inactivation of HSV [1]: 90-100%

CC(=O)N1CCN(c2ccc(OCC3COC(Cn4ccnc4)(c4ccc(Cl)cc4Cl)O3)cc2)CC1 (centres unmarked) [Ketoconazole]
inhibition in HBV surface antigen production ([7]; 10 μg/mL): 72%
HBV surface antigen production [7]: non-specifically inhibits HBV surface antigen production
reduction in protein synthesis ([8]; 10 μg/mL): 38%
cellular protein synthesis [8]: decrease in cellular protein synthesis

O=c1oc2cc3c(cc2c(O)c1O)OCO3 [Compound 8]
toxicity ([3H]-thymidine uptake and/or cell growth) ([2]; at 10 μM): no toxicity
inhibition at 24 h, 2.5 µM [3]: 2 ± 0.6%
inhibition at 24 h, 10 µM [3]: 6.6 ± 1%
inhibition at 24 h, 50 µM [3]: 54 ± 2%
inhibition at 24 h, 100 µM [3]: 68 ± 7.6%
inhibition at 48 h, 2.5 µM [3]: 4.2 ± 3.6%
inhibition at 48 h, 10 µM [3]: 8.1 ± 2.1%
inhibition at 48 h, 50 µM [3]: 52.2 ± 9.1%
inhibition at 48 h, 100 µM [3]: 71 ± 8.1%
inhibition at 2.5 µM ([4]; Human alphaherpesvirus 2, HSV-2, 2.5 μmol/L, read-out: % Inhibition of PFU, IA (intracellular activity)): 1 ± 0.2%
inhibition at 10 µM [4, 14]: 6.1 ± 1%
inhibition at 2.5 µM [5]: 3 ± 1%
inhibition at 10 µM [5]: 16 ± 8%

Cc1cc(C(C)(C)C)c(O)c(C(C)(C)C)c1 [BHT, butylated hydroxytoluene]
IC50 ([1]; Snipes et al., read-out: concentration causing 50% inactivation of HSV): 70 to 160 µM
inactivation of viruses that contain lipids [9]: readily inactivated
inactivation of viruses having no lipids [10]: comparatively insensitive

O=C1OC2(CCCCC2)C(O)=C1O [Compound 4, 4-spiro-2-hydroxytetronic acid]
toxicity ([3H]-thymidine uptake and/or cell growth) [2, 13]: display toxicity
inhibition at 24 h, 0.4 µM [3]: 6 ± 1.1%
inhibition at 24 h, 1.6 µM [3]: 21 ± 12%
inhibition at 24 h, 2.5 µM [3]: 37 ± 9.4%
inhibition at 24 h, 10 µM [3]: 88 ± 6.1%
inhibition at 48 h, 0.4 µM [3]: 8.4 ± 3.6%
inhibition at 48 h, 1.6 µM [3]: 22 ± 6.1%
inhibition at 48 h, 2.5 µM [3]: 59 ± 12.4%
inhibition at 48 h, 10 µM [3]: 86 ± 6.1%
inhibition at 0.4 µM [5]: 2 ± 1%
inhibition at 1.6 µM [5]: 1.8 ± 0.2%

C/C(=C\CO)CCC[C@H](C)CCC[C@H](C)CCCC(C)C [phytol]
concentration inhibiting HSV [1]: 0.01 to 0.1 mM
concentration inhibiting enveloped virus .phi. 6 [11]: 10^-6 to 10^-4 mM

CCCCCCCCCCCCO [dodecanol]
extracellular inactivation of HSV [1]: 90-100%

benzalkonium chloride
inactivation of HIV [6]: inactivate HIV
concentration destroying the infectiousness of HIV ([6]; general fluids of seropositive individuals): 0.05%

CCCCCCCCCCCCCCO [tetradecanol]
extracellular inactivation of HSV [1]: 90-100%

CCCCC[C@@H](O)[C@H]1C(=O)O[C@H](C)[C@@H](O)/C=C/C=C/C=C/C=C/C=C(\C)[C@@H](O)C[C@H](O)C[C@H](O)C[C@H](O)C[C@H](O)C[C@H](O)C[C@@H]1O [filipin]
inactivation of enveloped viruses [9]: inactivates enveloped viruses

CC(C)(Oc1ccc(Cl)cc1)C(=O)O [clofibric acid, reference compound]
inhibition at 500 µM ([4]; Human alphaherpesvirus 2, 500 μM, one experiment, n=3 wells, P<0.02, read-out: inhibition (PFU), virus-infected cells): 66 ± 6%
anti-HSV-1 activity (inhibition) ([12]; 500 μM, Mehl): 45%
inhibition of replication of HSV-1 ([12]; BGM 70 cells): inhibit replication of herpes simplex virus type 1 (HSV-1)
inhibition, extracellular treatment of HSV-2 ([5]; 500 μM, P>0.05): no significant (P>0.05) inhibition

From patent US5185366A, “Method for treatment and prevention of diseases caused by enveloped viruses, including herpes simplex virus types 1 and 2 diseases, using 3,4-dihydroxy-2H-benzopyran-2H-one” (Ohio State University Research Foundation, priority 1990, dated 1993)
